Values of other authors as cited in patent US6444192B1, “Diagnostic imaging of lymph structures” (The Regents of the University of California, priority 1999, dated 2002).
Read-outs that look alike come from different tables or passages of the source.

Conditions: 3 to 5 mL in the breast mass and surrounding tissue

For `CCN(CC)c1ccc(C(=C2C=CC(=[N+](CC)CC)C=C2)c2cc(S(=O)(=O)[O-])ccc2S(=O)(=O)[O-])cc1.[Na+]` [isosulfan blue], the sentinel node detected (first 87 cases) is listed as 58% and the sentinel node detected (next 87 cases) is listed as 78%.
